Experiments:
[1] = Relative solubility in chlorinated hydrocarbon and aqueous solvents; assay type: physicochemical; conditions: chlorinated hydrocarbon solvents versus water/aqueous solvents
[2] = system: Carragenin-induced oedema; assay: Anti-inflammatory activity against carragenin-induced oedema in rats, intraperitoneal administration; assay type: in vivo; conditions: for Volume of the oedema (Average ± S.D.): maximum volume after 3 hours
Protocol: (§1) Anti-inflammatory Activity Against Carragenin-induced Oedema in Rats
(§2) The anti-inflammatory activities of sericoside and sericic acid were determined by measuring the extent to which the oedema caused by sub-plantar administration of carragenin to rats could be inhibited by prior oral and intraperitoneal administration of the substances.
(1) Administration endoperitoneally 30 minutes prior to the injection of
(2) Maximum volume measured after 3 hours.

[3] = LD50 in mice (intraperitoneal); conditions: mouse, in vivo, ip, intraperitoneal administration
Description: The LD50 in mice (as determined with intraperitoneal administration) for sericic acid and sericoside was as follows: […]

[4] = system: Ultra-violet ray erythema; assay: Activity against ultra-violet ray erythema in guinea pigs (method of Winder et al.); assay type: in vivo, male albino guinea pigs; conditions: for Erythema Score, 2 h / Erythema Score, 4 h / Erythema Score, 6 h / Erythema Score, 8 h / Erythema Score, 22 h: 5% gel (200 mg) one hour prior to irradiation; for Erythema Score, 2 h: 0 = no erythema, 0.5 = moderate reddening, 1 = marked reddening, 2 = obvious erythema, controls 1.15 ± 0.17; for Erythema Score, 4 h: controls 2.40 ± 0.30; for Erythema Score, 6 h: controls 2.55 ± 0.34; for Erythema Score, 8 h: controls 2.35 ± 0.18; for Erythema Score, 22 h: controls 1.05 ± 0.23; for Percentage inhibition of erythema compared with the controls, 2 h / Percentage inhibition of erythema compared with the controls, 4 h / Percentage inhibition of erythema compared with the controls, 6 h / Percentage inhibition of erythema compared with the controls, 8 h / Percentage inhibition of erythema compared with the controls, 22 h: 5% gel (200 mg), in parentheses
Protocol: Activity Against Ultra-Violet Ray Erythema
Ultra-violet ray erythema in guinea pigs was effected in accordance with the method of Winder et al. (Arch. Int. Pharmacodyn, 106, 261, 1968).
Sericoside and sericic acid were applied to the depilated skin of male albino guinea pigs (average weight 300 - 400 g) in the form of a 5% gel (using 200 mg. thereof) one hour prior to irradiation. The animals were depilated 18 hours prior to the irradiation and irradiated for 3 minutes with a 500 W. mercury vapor lamp at a distance of 18 cms.

Experimental wounds = assay: Cicatrizing activity upon experimental wounds in rats (method of Morton & Malone); assay type: in vivo; conditions: for Healing activity compared with the controls: especially in the first days of treatment; for Percentage remargination (Average ± S.D.), Day I / Percentage remargination (Average ± S.D.), Day II / Percentage remargination (Average ± S.D.), Day III / Percentage remargination (Average ± S.D.), Day V / Percentage remargination (Average ± S.D.), Day VI: topical 10% suspension in 2% CMC, 0.1 ml/rat/day; for Percentage remargination (Average ± S.D.), Day I: control 5.2 ± 1.1; for Percentage remargination (Average ± S.D.), Day II: control 12.8 ± 1.5; for Percentage remargination (Average ± S.D.), Day III: control 21.9 ± 3.1; for Percentage remargination (Average ± S.D.), Day V: control 39.63 ± 2.3; for Percentage remargination (Average ± S.D.), Day VI: control 57.4 ± 2.1
Protocol: Cicatrizing Activity Upon Experimental Wounds in Rats
The cicatrizing activity of sericic acid and sericoside upon experimental wounds was determined on rats in accordance with the method of Morton & Malone (Arch. Int. Pharmacodyn. Ther. 196, 117, 1972).
The treatment of the wounds was effected with a 10% suspension of the active principles in water containing 2% carboxymethyl cellulose (CMC). The suspensions were used in doses of 0.1 ml. for each application, one treatment being effected per day.
Note: Topical treatment effected on each of the days on which measurement
were taken (I, II, III, V, and VI).

[5] = system: Carragenin-induced oedema; assay: Anti-inflammatory activity against carragenin-induced oedema in rats, oral administration; assay type: in vivo; conditions: 200 mg/kg orally for 3 days; for Percentage inhibition of the oedema: 3 hours after carragenin; for Volume of oedema (Average ± S.D.): maximum volume 3 hours after carragenin, controls 0.30 ± 0.005
Protocol: as §1, §2
^(1) Doses administered orally for 3 days; on the third day the
administration was effected two hours before the subplantar injection of
^(2) Maximum volume of the oedema measured 3 hours after the
subplantar injection of carragenin.

[6] = system: Gastric ulcer induced by Shay's method; assay: Anti-ulcer activity - gastric ulcer in rats induced by Shay's method; assay type: in vivo; conditions: for Diminution of the ulcer index compared with the controls: 200 mg/kg orally five times; for Number of ulcers of class I / Number of ulcers of class II / Number of ulcers of class III / Number of ulcers of class IV / Number of ulcers of class V: 13 animals; for Percentage ulcer variation in relation to controls: Table 1; for Ulcer Index: controls 75; for Product of the number of ulcers and the numerical value attributed to the class, class I / Product of the number of ulcers and the numerical value attributed to the class, class II / Product of the number of ulcers and the numerical value attributed to the class, class III / Product of the number of ulcers and the numerical value attributed to the class, class IV / Product of the number of ulcers and the numerical value attributed to the class, class V: in parentheses
Protocol: Anti-ulcer activity - Gastric Ulcer in the rats induced by Shay's method
The anti-ulcer activity of sericic acid and sericoside was determined by administering the compounds to rats in which gastric ulcers were induced by Shay's method. The compounds were administered at the dose of 200 mg./kg. orally five times, at 42, 30, 25 and 6 hours before tying of the pylorus and immediately after the operation and as shown in Table 1 diminished the ulcer index by 48 and 45 per cent respectively, compared with the controls.
^(1) Doses administered orally 5 times, 42, 30, 25 and 6 hours prior
to and immediately after the tying of the pylorus.
^(2) In parentheses the product of the number of ulcers and the
numerical value attributed to the individual classes according to the
individual classes according to the evaluation criterion of T. O.
Keyrilainen and M. K. Paasonen (Acta Pharmacol. et. Toxicol. 13, 22, 1957

[7] = 50 mg/kg endoperitoneally 30 minutes prior to carragenin
[8] = 50 mg/kg endoperitoneally 30 minutes prior to carragenin, controls 0.31 ± 0.006
[9] = 100 mg/kg endoperitoneally 30 minutes prior to carragenin

With `CC1(C)CC[C@]2(C(=O)O)CC[C@]3(C)C(=CC[C@@H]4[C@@]5(C)C[C@@H](O)[C@H](O)[C@](C)(CO)[C@@H]5CC[C@]43C)[C@@H]2[C@@H]1O` the Relative solubility [1] was “generally more soluble in chlorinated hydrocarbon solvents than in water”, the “Percentage inhibition of the oedema” value [2, 7] was 25% and the “Volume of the oedema (Average ± S.D.)” value [2, 8] was 0.23 ± 0.008 mL. The “Percentage inhibition of the oedema” value [2, 9] was 64%, the “Volume of the oedema (Average ± S.D.)” value ([2]; 100 mg/kg endoperitoneally 30 minutes prior to carragenin, controls 0.31 ± 0.010) was 0.11 ± 0.006 mL and the LD50 [3] was greater than 1000 mg/kg. The “Erythema Score, 2 h” value [4] was 0.95 ± 0.12, the “Erythema Score, 4 h” value [4] was 1.80 ± 0.21 and the “Erythema Score, 6 h” value [4] was 2.05 ± 0.22. The “Erythema Score, 8 h” value [4] was 1.35 ± 0.18, the “Erythema Score, 22 h” value [4] was 0.60 ± 0.10 and the “Percentage inhibition of erythema compared with the controls, 2 h” value [4] was 17.4%. The “Percentage inhibition of erythema compared with the controls, 4 h” value [4] was 25%, the “Percentage inhibition of erythema compared with the controls, 6 h” value [4] was 19.6% and the “Percentage inhibition of erythema compared with the controls, 8 h” value [4] was 42.5%. The “Percentage inhibition of erythema compared with the controls, 22 h” value [4] was 42.8%, the “Healing activity compared with the controls” value (Experimental wounds) was “significant healing activity” and the “Percentage remargination (Average ± S.D.), Day I” value (Experimental wounds) was 10.4 ± 1.3%. The “Percentage remargination (Average ± S.D.), Day II” value (Experimental wounds) was 23.7 ± 2.3%, the “Percentage remargination (Average ± S.D.), Day III” value (Experimental wounds) was 36.9 ± 2.7% and the “Percentage remargination (Average ± S.D.), Day V” value (Experimental wounds) was 48.00 ± 1.5%. The “Percentage remargination (Average ± S.D.), Day VI” value (Experimental wounds) was 59.0 ± 2.2%, the “Percentage inhibition of the oedema” value [5] was 23% and the “Volume of oedema (Average ± S.D.)” value [5] was 0.23 ± 0.009 mL. For the same molecule, the “Diminution of the ulcer index compared with the controls” value [6] was 48 per cent, the “Number of ulcers of class I” value ([6]; 200 mg/kg orally, 5 times) was 279 and the “Number of ulcers of class II” value ([6]; 200 mg/kg orally, 5 times) was 12. The “Number of ulcers of class III” value ([6]; 200 mg/kg orally, 5 times) was 3, the “Number of ulcers of class IV” value ([6]; 200 mg/kg orally, 5 times) was 2 and the “Number of ulcers of class V” value ([6]; 200 mg/kg orally, 5 times) was 9. The “Percentage ulcer variation in relation to controls” value ([6]; 200 mg/kg orally, 5 times) was -45%, the “Ulcer Index” value ([6]; 200 mg/kg orally, 5 times) was 45 and the “Product of the number of ulcers and the numerical value attributed to the class, class I” value ([6]; 200 mg/kg orally, 5 times) was 279. For the same molecule, the “Product of the number of ulcers and the numerical value attributed to the class, class II” value ([6]; 200 mg/kg orally, 5 times) was 60, the “Product of the number of ulcers and the numerical value attributed to the class, class III” value ([6]; 200 mg/kg orally, 5 times) was 30 and the “Product of the number of ulcers and the numerical value attributed to the class, class IV” value ([6]; 200 mg/kg orally, 5 times) was 40. The “Product of the number of ulcers and the numerical value attributed to the class, class V” value ([6]; 200 mg/kg orally, 5 times) was 180.

For `CC1(C)CC[C@]2(C(=O)OC3O[C@H](CO)[C@@H](O)[C@H](O)[C@H]3O)CC[C@]3(C)C(=CC[C@@H]4[C@@]5(C)C[C@@H](O)[C@H](O)[C@](C)(CO)[C@@H]5CC[C@]43C)[C@@H]2[C@@H]1O` (some centres unmarked), the Relative solubility [1] was “generally more soluble in aqueous solvents than chlorinated hydrocarbons”, the “Percentage inhibition of the oedema” value [2, 7] was 35% and the “Volume of the oedema (Average ± S.D.)” value [2, 8] was 0.20 ± 0.005 mL. For the same molecule, the “Percentage inhibition of the oedema” value [2, 9] was 67%, the LD50 [3] was greater than 1000 mg/kg and the “Erythema Score, 2 h” value [4] was 0.75 ± 0.17. For the same molecule, the “Erythema Score, 4 h” value [4] was 1.70 ± 0.23, the “Erythema Score, 6 h” value [4] was 1.95 ± 0.22 and the “Erythema Score, 8 h” value [4] was 1.30 ± 0.25. The “Erythema Score, 22 h” value [4] was 0.70 ± 0.15, the “Percentage inhibition of erythema compared with the controls, 2 h” value [4] was 34.8% and the “Percentage inhibition of erythema compared with the controls, 4 h” value [4] was 29.2%. For the same molecule, the “Percentage inhibition of erythema compared with the controls, 6 h” value [4] was 23.5%, the “Percentage inhibition of erythema compared with the controls, 8 h” value [4] was 44.7% and the “Percentage inhibition of erythema compared with the controls, 22 h” value [4] was 33.3%. For the same molecule, the “Healing activity compared with the controls” value (Experimental wounds) was “significant healing activity”, the “Percentage remargination (Average ± S.D.), Day I” value (Experimental wounds) was 13.9 ± 1.4% and the “Percentage remargination (Average ± S.D.), Day II” value (Experimental wounds) was 23.7 ± 1.5%. For the same molecule, the “Percentage remargination (Average ± S.D.), Day III” value (Experimental wounds) was 36.8 ± 2.0%, the “Percentage remargination (Average ± S.D.), Day V” value (Experimental wounds) was 53.30 ± 2.8% and the “Percentage remargination (Average ± S.D.), Day VI” value (Experimental wounds) was 68.2 ± 2.1%. For the same molecule, the “Percentage inhibition of the oedema” value [5] was 26%, the “Volume of oedema (Average ± S.D.)” value [5] was 0.22 ± 0.010 mL and the “Diminution of the ulcer index compared with the controls” value [6] was 45 per cent. The “Number of non-ulcerated stomachs (per cent)” value ([6]; 200 mg/kg orally, 5 times) was 7.6 per cent, the “Number of ulcers of class I” value ([6]; 200 mg/kg orally, 5 times) was 369 and the “Number of ulcers of class II” value ([6]; 200 mg/kg orally, 5 times) was 15. The “Number of ulcers of class III” value ([6]; 200 mg/kg orally, 5 times) was 1, the “Number of ulcers of class IV” value ([6]; 200 mg/kg orally, 5 times) was 0 and the “Number of ulcers of class V” value ([6]; 200 mg/kg orally, 5 times) was 3. The “Percentage ulcer variation in relation to controls” value ([6]; 200 mg/kg orally, 5 times) was -48%, the “Ulcer Index” value ([6]; 200 mg/kg orally, 5 times) was 39.5 and the “Product of the number of ulcers and the numerical value attributed to the class, class I” value ([6]; 200 mg/kg orally, 5 times) was 369. The “Product of the number of ulcers and the numerical value attributed to the class, class II” value ([6]; 200 mg/kg orally, 5 times) was 75, the “Product of the number of ulcers and the numerical value attributed to the class, class III” value ([6]; 200 mg/kg orally, 5 times) was 10 and the “Product of the number of ulcers and the numerical value attributed to the class, class IV” value ([6]; 200 mg/kg orally, 5 times) was 0. For the same molecule, the “Product of the number of ulcers and the numerical value attributed to the class, class V” value ([6]; 200 mg/kg orally, 5 times) was 60.
